Measured values taken from PubChem BioAssay AID2060606 (Molecular Pharmacology Branch, DTP, NCI, 2025).

Tested on: 922993-354-T-J3-PDC complex spheroids, viability, % test/control
Experiment: Anticancer human tumor 922993-354-T-J3-PDC patient-derived endometrial carcinoma cell line growth inhibition [CLK]
Conditions: for IC50: curve of first compound; for viability, T/C: stronger effect = lower value
Method in brief: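 Multi-cell-type spheroids combined patient-derived tumor cells with HUVEC endothelial cells and human mesenchymal stem cells. Paired agents were dosed in half-log steps down from about clinical Cmax, or from 10 microM where Cmax was unknown.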

[1] = second compound 0.0316 µM, first compound 0.0316 µM
[2] = second compound 0.0316 µM, first compound 0.1 µM
[3] = second compound 0.1 µM, first compound 0.0316 µM
[4] = second compound 0.1 µM, first compound 0.1 µM
[5] = second compound 0.316 µM, first compound 0.0316 µM
[6] = second compound 0.316 µM, first compound 0.1 µM
[7] = second compound 1 µM, first compound 0.0316 µM
[8] = second compound 1 µM, first compound 0.1 µM
[9] = second compound 3.16 µM, first compound 0.0316 µM
[10] = second compound 3.16 µM, first compound 0.1 µM
[11] = second compound 10 µM, first compound 0.0316 µM
[12] = second compound 10 µM, first compound 0.1 µM
[13] = second compound 0.0316 µM, first compound 0.316 µM
[14] = second compound 0.0316 µM, first compound 1 µM
[15] = second compound 0.0316 µM, first compound 3.16 µM
[16] = second compound 0.0316 µM, first compound 10 µM
[17] = second compound 0.1 µM, first compound 0.316 µM
[18] = second compound 0.1 µM, first compound 1 µM
[19] = second compound 0.1 µM, first compound 3.16 µM
[20] = second compound 0.1 µM, first compound 10 µM
[21] = second compound 0.316 µM, first compound 0.316 µM
[22] = second compound 0.316 µM, first compound 1 µM
[23] = second compound 0.316 µM, first compound 3.16 µM
[24] = second compound 0.316 µM, first compound 10 µM
[25] = second compound 1 µM, first compound 0.316 µM
[26] = second compound 1 µM, first compound 1 µM
[27] = second compound 1 µM, first compound 3.16 µM
[28] = second compound 1 µM, first compound 10 µM
[29] = second compound 3.16 µM, first compound 0.316 µM
[30] = second compound 3.16 µM, first compound 1 µM
[31] = second compound 3.16 µM, first compound 3.16 µM
[32] = second compound 3.16 µM, first compound 10 µM
[33] = second compound 10 µM, first compound 0.316 µM
[34] = second compound 10 µM, first compound 1 µM
[35] = second compound 10 µM, first compound 3.16 µM
[36] = second compound 10 µM, first compound 10 µM
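Further: spheroids exposed to the agents for 7 days before readout.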

Structure (SMILES): Cn1ncnc1[C@H]1c2n[nH]c(=O)c3cc(F)cc(c23)N[C@@H]1c1ccc(F)cc1 + CN1CCN(c2cc(C(=O)Nc3cc4cc(-c5cnn(C)c5)ccc4cn3)ccn2)CC1
- IC50 (second compound 0.0316 µM): > 100 nM
- IC50 (second compound 0.1 µM): > 100 nM
- IC50 (second compound 0.316 µM): < 0.316 nM
- IC50 (second compound 1 µM): < 0.316 nM
- IC50 (second compound 3.16 µM): < 0.316 nM
- IC50 (second compound 10 µM): < 0.316 nM
- viability, T/C (second compound 0.0316 µM, first compound 0.000316 µM): 126%
- viability, T/C (second compound 0.0316 µM, first compound 0.001 µM): 121%
- viability, T/C (second compound 0.0316 µM, first compound 0.00316 µM): 104%
- viability, T/C (second compound 0.0316 µM, first compound 0.01 µM): 119%
- viability, T/C [1]: 119%
- viability, T/C [2]: 75.3%
- viability, T/C (second compound 0.1 µM, first compound 0.000316 µM): 110%
- viability, T/C (second compound 0.1 µM, first compound 0.001 µM): 101%
- viability, T/C (second compound 0.1 µM, first compound 0.00316 µM): 102%
- viability, T/C (second compound 0.1 µM, first compound 0.01 µM): 103%
- viability, T/C [3]: 116%
- viability, T/C [4]: 75.3%
- viability, T/C (second compound 0.316 µM, first compound 0.000316 µM): 43.1%
- viability, T/C (second compound 0.316 µM, first compound 0.001 µM): 35.2%
- viability, T/C (second compound 0.316 µM, first compound 0.00316 µM): 41.5%
- viability, T/C (second compound 0.316 µM, first compound 0.01 µM): 32.7%
- viability, T/C [5]: 35.6%
- viability, T/C [6]: 20.4%
- viability, T/C (second compound 1 µM, first compound 0.000316 µM): 0.13%
- viability, T/C (second compound 1 µM, first compound 0.001 µM): 0.83%
- viability, T/C (second compound 1 µM, first compound 0.00316 µM): 0.12%
- viability, T/C (second compound 1 µM, first compound 0.01 µM): 0.32%
- viability, T/C [7]: 0.11%
- viability, T/C [8]: 0.89%
- viability, T/C (second compound 3.16 µM, first compound 0.000316 µM): 0.12%
- viability, T/C (second compound 3.16 µM, first compound 0.001 µM): 1.22%
- viability, T/C (second compound 3.16 µM, first compound 0.00316 µM): 0.35%
- viability, T/C (second compound 3.16 µM, first compound 0.01 µM): 0.07%
- viability, T/C [9]: 0.95%
- viability, T/C [10]: 1.3%
- viability, T/C (second compound 10 µM, first compound 0.000316 µM): 0.13%
- viability, T/C (second compound 10 µM, first compound 0.001 µM): 0.16%
- viability, T/C (second compound 10 µM, first compound 0.00316 µM): 0.88%
- viability, T/C (second compound 10 µM, first compound 0.01 µM): 0.13%
- viability, T/C [11]: 1.94%
- viability, T/C [12]: 2.55%

Structure (SMILES): Nc1ccn(C2OC(CO)C(O)C2(F)F)c(=O)n1 (stereo unspecified) + CN1CCN(c2cc(C(=O)Nc3cc4cc(-c5cnn(C)c5)ccc4cn3)ccn2)CC1
- IC50 (second compound 0.0316 µM): < 31.6 nM
- IC50 (second compound 0.1 µM): < 31.6 nM
- IC50 (second compound 0.316 µM): < 31.6 nM
- IC50 (second compound 1 µM): < 31.6 nM
- IC50 (second compound 3.16 µM): < 31.6 nM
- IC50 (second compound 10 µM): < 31.6 nM
- viability, T/C [1]: 20.2%
- viability, T/C [2]: 13.4%
- viability, T/C [13]: 16.6%
- viability, T/C [14]: 15.9%
- viability, T/C [15]: 16.6%
- viability, T/C [16]: 17.2%
- viability, T/C [3]: 23.5%
- viability, T/C [4]: 16.3%
- viability, T/C [17]: 15.7%
- viability, T/C [18]: 17.2%
- viability, T/C [19]: 16.9%
- viability, T/C [20]: 18.4%
- viability, T/C [5]: 14%
- viability, T/C [6]: 11.3%
- viability, T/C [21]: 10.3%
- viability, T/C [22]: 11.6%
- viability, T/C [23]: 12.5%
- viability, T/C [24]: 11.5%
- viability, T/C [7]: 0.1%
- viability, T/C [8]: 0.12%
- viability, T/C [25]: 0.13%
- viability, T/C [26]: 0.06%
- viability, T/C [27]: 1.89%
- viability, T/C [28]: 0.07%
- viability, T/C [9]: 0.11%
- viability, T/C [10]: 2.53%
- viability, T/C [29]: 1.37%
- viability, T/C [30]: 0.13%
- viability, T/C [31]: 0.85%
- viability, T/C [32]: 2.45%
- viability, T/C [11]: 0.16%
- viability, T/C [12]: 1.71%
- viability, T/C [33]: 1.82%
- viability, T/C [34]: 0.17%
- viability, T/C [35]: 0.67%
- viability, T/C [36]: 1.33%

Structure (SMILES): O=c1[nH]cc(F)c(=O)[nH]1 + CN1CCN(c2cc(C(=O)Nc3cc4cc(-c5cnn(C)c5)ccc4cn3)ccn2)CC1
- IC50 (second compound 0.0316 µM): 7950 nM
- IC50 (second compound 0.1 µM): 4390 nM
- IC50 (second compound 0.316 µM): < 31.6 nM
- IC50 (second compound 1 µM): < 31.6 nM
- IC50 (second compound 3.16 µM): < 31.6 nM
- IC50 (second compound 10 µM): < 31.6 nM
- viability, T/C [1]: 104%
- viability, T/C [2]: 99.5%
- viability, T/C [13]: 95.2%
- viability, T/C [14]: 114%
- viability, T/C [15]: 65.6%
- viability, T/C [16]: 46.1%
- viability, T/C [3]: 102%
- viability, T/C [4]: 87.2%
- viability, T/C [17]: 94.1%
- viability, T/C [18]: 80.5%
- viability, T/C [19]: 54.2%
- viability, T/C [20]: 38.9%
- viability, T/C [5]: 34.3%
- viability, T/C [6]: 34.3%
- viability, T/C [21]: 33.3%
- viability, T/C [22]: 31.3%
- viability, T/C [23]: 38%
- viability, T/C [24]: 24.6%
- viability, T/C [7]: 0.11%
- viability, T/C [8]: 0.38%
- viability, T/C [25]: 0.11%
- viability, T/C [26]: 0.78%
- viability, T/C [27]: 1.96%
- viability, T/C [28]: 1.27%
- viability, T/C [9]: 0.09%
- viability, T/C [10]: 0.09%
- viability, T/C [29]: 1.19%
- viability, T/C [30]: 0.76%
- viability, T/C [31]: 0.73%
- viability, T/C [32]: 2.29%
- viability, T/C [11]: 0.09%
- viability, T/C [12]: 0.11%
- viability, T/C [33]: 0.93%
- viability, T/C [34]: 0.13%
- viability, T/C [35]: 2.73%
- viability, T/C [36]: 2.68%
